Laboratory results as given in US8652838B2, “Platensimycin biosynthetic gene cluster of Streptomyces platensis” (Wisconsin Alumni Research Foundation, priority 2007, dated 2014).
Converted amounts (≈) assume the structure as drawn. Like-named read-outs stand apart in the source and are kept apart here.

Legend:
[1] = animal model studies; cited from earlier work
S. aureus = conditions: cited from earlier work
Streptococcus pneumoniae = conditions: cited from earlier work
FabF [2] = target: T1, FabF (Staphylococcus aureus, UniProt Q5TKS0); conditions: cited from earlier work
T1 sequence (Q5TKS0 1-403): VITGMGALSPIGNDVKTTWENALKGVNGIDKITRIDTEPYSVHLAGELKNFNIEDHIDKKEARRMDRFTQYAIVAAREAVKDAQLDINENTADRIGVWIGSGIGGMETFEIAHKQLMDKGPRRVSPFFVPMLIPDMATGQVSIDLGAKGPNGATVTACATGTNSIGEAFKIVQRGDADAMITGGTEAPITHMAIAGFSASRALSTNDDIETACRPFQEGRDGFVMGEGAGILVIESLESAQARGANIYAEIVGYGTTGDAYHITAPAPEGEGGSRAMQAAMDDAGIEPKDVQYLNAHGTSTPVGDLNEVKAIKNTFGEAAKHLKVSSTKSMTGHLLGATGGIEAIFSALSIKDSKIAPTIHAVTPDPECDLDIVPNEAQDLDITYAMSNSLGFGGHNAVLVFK

[3] = system: lipid biosynthesis in S. aureus; conditions: whole-cell labeling; cited from earlier work
FabF [4] = target: T1, FabF; conditions: 14C-radiolabeled malonyl-CoA, polyacrylamide gel electrophoresis; cited from earlier work
FabH [5] = target: T2, FabH (Staphylococcus aureus, UniProt Q8NXE2); conditions: cited from earlier work
T2 sequence (Q8NXE2 1-313): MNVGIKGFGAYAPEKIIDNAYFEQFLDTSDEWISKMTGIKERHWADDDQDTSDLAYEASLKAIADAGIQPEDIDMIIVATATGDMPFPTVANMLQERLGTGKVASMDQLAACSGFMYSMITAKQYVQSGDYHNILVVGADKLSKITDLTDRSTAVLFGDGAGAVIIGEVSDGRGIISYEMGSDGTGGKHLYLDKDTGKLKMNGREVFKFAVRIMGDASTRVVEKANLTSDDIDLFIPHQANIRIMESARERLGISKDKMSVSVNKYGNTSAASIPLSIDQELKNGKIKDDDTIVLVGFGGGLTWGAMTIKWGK

[6] = system: DNA, RNA, protein or cell wall biosynthesis; conditions: whole-cell labeling; cited from earlier work
S. aureus infection = conditions: cited from earlier work
FabH [7] = target: T2, FabH; conditions: cited from earlier work; remark: listed apart in the source
mammalian cell = conditions: cited from earlier work
Streptomyces avermitilis = experiment: paper disk susceptibility of S. avermitilis; assay type: cell-based; conditions: 0.5-4 μg on paper disk
Description: (§1) FIGS. 6A-C: Engineering of S. platensis. (FIG. 6A) Additional biosynthetic intermediates and shunt metabolites isolated from the wild-type S. platensis MA7327 strain. (FIG. 6B) Production of PTM (●) and PTN (♦) by the engineered S. platensis SB12002 (iv) and SB12001 (iii) strains with the wild-type S. platensis MA7327 as a control under two fermentation conditions for PTM (i) and PTM and PTN (ii) production. (FIG. 6C) Susceptibility of S. avermitilis and S. albus J1074 to PTM and PTN: 1, negative controls; 2, 4 μg; 3, 4 μg; 4, 2 μg; 5, 1 μg; 6, 0.5 μg of PTM or PTN on each paper disk.
(§2) Having large quantity (multiple grams) of PTM and PTN in hand from the overproducers, the inventors systematically examined the sensitivity of a battery of Streptomyces towards PTM or PTN. Remarkably, they have identified strains that are sensitive to both PTM and PTN, as exemplified by Streptomyces avermitilis, or PTN but not PTM, as exemplified by Streptomyces albus J1074 (FIG. 6C). The differential sensitivity of the organisms tested towards PTM and PTN is consistent with the established mode of action for PTM and PTN (i.e., PTM as a FabB/F inhibitor while PTN as a FabB/F and FabH dual inhibitor)—targeting two essential proteins should lead to lower resistance potential than targeting only one. […]

Escherichia coli = conditions: cited from earlier work
S. platensis MA7327 = experiment: antibiotic sensitivity of S. platensis MA7327; assay type: cell-based, Streptomyces platensis
Description: The inventors have developed an efficient genetic system for in vivo manipulation of PTM/PTN biosynthesis in S. platensis MA7327 via E. coli-S. platensis conjugation. […] Although S. platensis protoplasts can be readily prepared and regenerated with high frequency, introduction of either replicative or integrative plasmid into S. platensis via protoplast-mediated transformation has not been successful (Kieser et al., 2000).

Streptomyces albus J1074 = experiment: paper disk susceptibility of S. albus J1074; assay type: cell-based; conditions: 0.5-4 μg on paper disk
Description: as §1, §2

[8] = system: vancomycin-resistant E. faecium; conditions: cited from earlier work

C[C@]12C[C@@]34C=CC(=O)[C@@](C)(CCC(=O)Nc5c(O)ccc(C(=O)O)c5O)C3[C@H](CC1C4)O2 (stereo partly shown) [PTM, platensimycin]
pharmacokinetics [1]: exceedingly poor pharmacokinetics
minimal inhibitory concentration (S. aureus): 1 µM (≈ 0.441 µg/mL)
minimal inhibitory concentration (Streptococcus pneumoniae): 2.5 µM (≈ 1.1 µg/mL)
greater potency than cerulenin as inhibitor of FabF (FabF [2]; relative to cerulenin): 200 fold
IC50 (FabF [2]; single enzyme inhibition assays): < 0.05 µM
IC50 inhibition of lipid biosynthesis [3]: 0.1 mg/L
preference for FabF inhibition relative to FabH inhibition (FabF [4]): 838 fold
inhibition of S. aureus FabH (FabH [5]): weak inhibition
concentration without inhibition of DNA, RNA, protein or cell wall biosynthesis [6]: > 500 µg/mL
decrease of S. aureus infection (S. aureus infection; mouse, 100 μg/h intravenously with a continuous pump, over 24 hrs): 10^4-10^5 fold
FabH inhibition (FabH [7]): does not inhibit FabH to any significant extent
mammalian cell toxicity (mammalian cell): Low
sensitivity of Streptomyces avermitilis (Streptomyces avermitilis): sensitive
antibacterial activity (Escherichia coli; efflux-negative Escherichia coli): showed antibacterial activity
effectiveness against Gram-negative Escherichia coli (Escherichia coli; tolC dependent efflux): not very effective
antibacterial activity (Escherichia coli; wild-type E. coli): not against wild-type E. coli

CN[C@@H]1[C@@H](O[C@H]2O[C@H](CO)[C@@H](N)[C@H](O)[C@H]2O)OC2C[C@@H](N)[C@@H](O[C@H]3[C@H](O)[C@@H](O)[C@H](N)C[C@@H]3N)OC2[C@@H]1O (stereo partly shown) [apramycin]
concentration giving complete inhibition of growth (S. platensis MA7327): 25 µg/mL

CC[C@H]1OC(=O)[C@H](C)[C@@H](O[C@H]2C[C@@](C)(OC)[C@@H](O)[C@H](C)O2)[C@H](C)[C@@H](O[C@@H]2O[C@H](C)C[C@H](N(C)C)[C@H]2O)[C@](C)(O)C[C@@H](C)C(=O)[C@H](C)[C@@H](O)[C@]1(C)O [erythromycin]
concentration giving complete inhibition of growth (S. platensis MA7327): 10 µg/mL

NC[C@H]1O[C@H](O[C@H]2[C@H](O)[C@@H](O[C@H]3O[C@H](CO)[C@@H](O)[C@H](N)[C@H]3O)[C@H](N)C[C@@H]2N)[C@H](O)[C@@H](O)[C@@H]1O [kanamycin]
concentration giving complete inhibition of growth (S. platensis MA7327): 25 µg/mL

C=C1C[C@@]23C=CC(=O)[C@@](C)(CCC(=O)Nc4c(O)ccc(C(=O)O)c4O)[C@@H]2C[C@@H]1CC3 [platencin]
pharmacokinetics [1]: exceedingly poor pharmacokinetics
sensitivity of Streptomyces albus J1074 (Streptomyces albus J1074): sensitive
antibacterial activity compared to platensimycin (Streptococcus pneumoniae; S. pneumoniae): decreased activity
reduction of S. aureus cfu in kidney (S. aureus infection; mouse, continuous infusion 150 μg/h, over 24 h): 3 log
in vivo efficacy (S. aureus infection; mouse, in vivo): potent in vivo efficacy
observed toxicity in vivo (S. aureus infection; mouse, in vivo): without any observed toxicity
antibacterial activity compared to platensimycin [8]: increased antibacterial activity
FabH inhibition (FabH [7]): inhibits FabH
sensitivity of Streptomyces avermitilis (Streptomyces avermitilis): sensitive
antibacterial activity compared to platensimycin (Escherichia coli; efflux-negative E. coli): increased antibacterial activity

C=C(NC(=O)C(=C)NC(=O)c1csc(C2=N[C@@H]3c4csc(n4)[C@H]4NC(=O)c5csc(n5)[C@H]([C@](C)(O)[C@@H](C)O)NC(=O)[C@H]5CSC(=N5)/C(=C/C)NC(=O)[C@H]([C@@H](C)O)NC(=O)c5csc(n5)[C@]3(CC2)NC(=O)[C@H](C)NC(=O)C(=C)NC(=O)[C@H](C)NC(=O)[C@H]([C@@H](C)CC)N[C@@H]2C=Cc3c([C@H](C)O)cc(nc3[C@H]2O)C(=O)O[C@@H]4C)n1)C(N)=O [thiostrepton]
concentration giving complete inhibition of growth (S. platensis MA7327): 10 µg/mL

platensimycin [PTM]
clearing S. aureus infection from a mouse model (S. aureus infection; high doses): effective in clearing S. aureus infection
